# In US12453707B2, “Vaginal films” (priority 2017, dated 2025):
# Key:
# [1] = X-ray diffraction solid state solubility of TFV in polymers; type: physicochemical; details: XRD of lyophilized polymer:TFV mass, pH 6-6.5
# Method: X-ray diffraction (XRD) was used to study the solid state solubility of TFV in a series of polymers like HPMC-E5, HEC, and NaCMC-LV. TFV and polymers were dissolved together in milliQ water on a magnetic stirrer to achieve various polymer to TFV (P:T) ratios. pH was adjusted to 6-6.5 using sodium hydroxide equimolar to TFV. The solutions were then lyophilized using a Freezone 6 lyophilizer (Labconco, MO, USA). The powder obtained after lyophilization was scanned on a Philips X-ray diffractometer between 5-50° 2θ. A 37-minute scan was obtained. Similarly obtained XRD scans for lyophilized pure polymers and lyophilized TFV (pH 6-6.5) served as controls.
# [2] = cited from earlier work
smiles,measurement,setting,value
"C[C@H](Cn1cnc2c(N)ncnc21)OCP(=O)(O)O [TFV, 9-[9(R)-2-(phosphonomethoxy)propyl]adenine]","P:T ratio at which HPMC-E5, HEC and NaCMC-LV were able to solubilize TFV",[1],≥ 3
same,"pKa, phosphate groups (first value)",[2],2.1
same,"pKa, phosphate groups (second value)",[2],4.3
same,"pKa, primary amine group",[2],7.3
